# Like-named read-outs stand apart in the source and are kept apart here.
# Tests used:
# Test in all cases: Kinase activity test (ReactionBiology), % enzyme activity relative to DMSO
# Type in all cases: biochemical
# EPHB4 = target: T1, EPHB4 (Homo sapiens, UniProt P54760);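 note: EPHB4 was one of ten selected kinases in the screening panel, with enzyme activity expressed as a percentage of DMSO controls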
# T1 construct: purchased ReactionBiology
# T1 sequence (P54760 16-987): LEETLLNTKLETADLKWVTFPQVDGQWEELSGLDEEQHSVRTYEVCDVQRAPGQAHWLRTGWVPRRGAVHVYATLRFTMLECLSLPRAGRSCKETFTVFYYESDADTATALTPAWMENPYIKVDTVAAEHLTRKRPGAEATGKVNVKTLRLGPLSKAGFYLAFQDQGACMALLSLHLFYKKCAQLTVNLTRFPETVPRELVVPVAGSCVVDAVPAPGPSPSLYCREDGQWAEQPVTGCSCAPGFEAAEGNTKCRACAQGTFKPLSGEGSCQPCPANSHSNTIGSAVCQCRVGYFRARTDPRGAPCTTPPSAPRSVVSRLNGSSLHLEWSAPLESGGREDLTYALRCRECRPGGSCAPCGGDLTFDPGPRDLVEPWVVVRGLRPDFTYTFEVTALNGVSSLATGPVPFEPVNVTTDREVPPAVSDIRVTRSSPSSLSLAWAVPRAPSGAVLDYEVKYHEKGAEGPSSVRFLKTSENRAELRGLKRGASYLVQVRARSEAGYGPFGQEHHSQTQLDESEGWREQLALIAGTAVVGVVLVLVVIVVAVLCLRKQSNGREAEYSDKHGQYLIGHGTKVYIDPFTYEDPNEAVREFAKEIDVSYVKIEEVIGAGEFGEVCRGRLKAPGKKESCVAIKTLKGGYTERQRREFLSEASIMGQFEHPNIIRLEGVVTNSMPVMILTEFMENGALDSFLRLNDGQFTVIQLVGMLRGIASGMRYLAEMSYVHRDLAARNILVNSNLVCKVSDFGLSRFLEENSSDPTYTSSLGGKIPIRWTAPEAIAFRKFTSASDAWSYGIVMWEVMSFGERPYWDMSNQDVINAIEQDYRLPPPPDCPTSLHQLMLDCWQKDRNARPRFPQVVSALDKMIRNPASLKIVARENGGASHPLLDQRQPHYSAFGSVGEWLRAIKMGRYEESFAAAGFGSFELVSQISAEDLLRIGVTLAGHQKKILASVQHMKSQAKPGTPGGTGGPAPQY
# NEK2 = target: T2, NEK2 (Homo sapiens, UniProt P51955); conditions: NEK2, replicate Data 1;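 note: FDA-approved drugs chosen by structure-based repositioning, each screened at 10 or 1 µM for kinase activity, expressed as percent of DMSO controls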
# T2 construct: purchased ReactionBiology
# T2 sequence (P51955 1-445): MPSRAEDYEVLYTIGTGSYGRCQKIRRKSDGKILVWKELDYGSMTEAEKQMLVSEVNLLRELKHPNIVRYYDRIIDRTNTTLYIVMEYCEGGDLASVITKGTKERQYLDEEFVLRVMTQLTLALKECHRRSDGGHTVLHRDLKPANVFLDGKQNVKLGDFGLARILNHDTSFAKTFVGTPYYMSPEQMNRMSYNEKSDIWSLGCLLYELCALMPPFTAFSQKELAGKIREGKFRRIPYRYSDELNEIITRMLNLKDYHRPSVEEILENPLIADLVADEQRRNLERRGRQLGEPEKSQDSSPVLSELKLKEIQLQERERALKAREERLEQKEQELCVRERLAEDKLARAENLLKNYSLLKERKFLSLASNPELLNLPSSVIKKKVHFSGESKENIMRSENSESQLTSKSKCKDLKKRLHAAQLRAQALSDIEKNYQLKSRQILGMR
# VEGFR2 = VEGFR2 (Homo sapiens, UniProt P35968); design: purchased ReactionBiology; conditions: VEGFR2;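 note: VEGFR2 was one member of a ten-kinase screening panel testing marketed FDA-approved drugs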
# CK1d = target: T3, CK1d (Homo sapiens, UniProt P48730)
# T3 construct: purchased ReactionBiology
# DAPK1 = target: T4, DAPK1 (Homo sapiens, UniProt P53355)
# T4 construct: purchased ReactionBiology
# [1] = EPHB4, 1 uM, Average, read-out: % Enzyme Activity (relative to DMSO controls), Average
# [2] = EPHB4, 1 uM, replicate Data 1, read-out: % Enzyme Activity (relative to DMSO controls), Data 1
# [3] = EPHB4, 1 uM, replicate Data 2, read-out: % Enzyme Activity (relative to DMSO controls), Data 2
# [4] = EPHB4, 10 uM, Average, read-out: % Enzyme Activity (relative to DMSO controls), Average
# [5] = EPHB4, 10 uM, replicate Data 1, read-out: % Enzyme Activity (relative to DMSO controls), Data 1
# [6] = EPHB4, 10 uM, replicate Data 2, read-out: % Enzyme Activity (relative to DMSO controls), Data 2
# [7] = DAPK1, 1 uM, Average, read-out: % Enzyme Activity (relative to DMSO controls), Average
# [8] = DAPK1, 1 uM, replicate Data 1, read-out: % Enzyme Activity (relative to DMSO controls), Data 1
# [9] = DAPK1, 1 uM, replicate Data 2, read-out: % Enzyme Activity (relative to DMSO controls), Data 2
# [10] = DAPK1, 10 uM, Average, read-out: % Enzyme Activity (relative to DMSO controls), Average
# [11] = DAPK1, 10 uM, replicate Data 1, read-out: % Enzyme Activity (relative to DMSO controls), Data 1
# [12] = DAPK1, 10 uM, replicate Data 2, read-out: % Enzyme Activity (relative to DMSO controls), Data 2
# [13] = CK1d, 1 uM, Average, read-out: % Enzyme Activity (relative to DMSO controls), Average
# [14] = CK1d, 1 uM, replicate Data 1, read-out: % Enzyme Activity (relative to DMSO controls), Data 1
# [15] = CK1d, 1 uM, replicate Data 2, read-out: % Enzyme Activity (relative to DMSO controls), Data 2
# [16] = CK1d, 10 uM, Average, read-out: % Enzyme Activity (relative to DMSO controls), Average
# [17] = CK1d, 10 uM, replicate Data 1, read-out: % Enzyme Activity (relative to DMSO controls), Data 1
# [18] = CK1d, 10 uM, replicate Data 2, read-out: % Enzyme Activity (relative to DMSO controls), Data 2
# [19] = 1 uM, Average, read-out: % Enzyme Activity (relative to DMSO controls), Average
# [20] = 1 uM, replicate Data 1, read-out: % Enzyme Activity (relative to DMSO controls), Data 1
# [21] = 1 uM, replicate Data 2, read-out: % Enzyme Activity (relative to DMSO controls), Data 2
# [22] = 10 uM, Average, read-out: % Enzyme Activity (relative to DMSO controls), Average
# [23] = 10 uM, replicate Data 1, read-out: % Enzyme Activity (relative to DMSO controls), Data 1
# [24] = 10 uM, replicate Data 2, read-out: % Enzyme Activity (relative to DMSO controls), Data 2
# [25] = read-out: % Enzyme Activity (relative to DMSO controls), Average
# [26] = read-out: % Enzyme Activity (relative to DMSO controls), Data 1
# [27] = read-out: % Enzyme Activity (relative to DMSO controls), Data 2
# T4 sequence (P53355 whole entry): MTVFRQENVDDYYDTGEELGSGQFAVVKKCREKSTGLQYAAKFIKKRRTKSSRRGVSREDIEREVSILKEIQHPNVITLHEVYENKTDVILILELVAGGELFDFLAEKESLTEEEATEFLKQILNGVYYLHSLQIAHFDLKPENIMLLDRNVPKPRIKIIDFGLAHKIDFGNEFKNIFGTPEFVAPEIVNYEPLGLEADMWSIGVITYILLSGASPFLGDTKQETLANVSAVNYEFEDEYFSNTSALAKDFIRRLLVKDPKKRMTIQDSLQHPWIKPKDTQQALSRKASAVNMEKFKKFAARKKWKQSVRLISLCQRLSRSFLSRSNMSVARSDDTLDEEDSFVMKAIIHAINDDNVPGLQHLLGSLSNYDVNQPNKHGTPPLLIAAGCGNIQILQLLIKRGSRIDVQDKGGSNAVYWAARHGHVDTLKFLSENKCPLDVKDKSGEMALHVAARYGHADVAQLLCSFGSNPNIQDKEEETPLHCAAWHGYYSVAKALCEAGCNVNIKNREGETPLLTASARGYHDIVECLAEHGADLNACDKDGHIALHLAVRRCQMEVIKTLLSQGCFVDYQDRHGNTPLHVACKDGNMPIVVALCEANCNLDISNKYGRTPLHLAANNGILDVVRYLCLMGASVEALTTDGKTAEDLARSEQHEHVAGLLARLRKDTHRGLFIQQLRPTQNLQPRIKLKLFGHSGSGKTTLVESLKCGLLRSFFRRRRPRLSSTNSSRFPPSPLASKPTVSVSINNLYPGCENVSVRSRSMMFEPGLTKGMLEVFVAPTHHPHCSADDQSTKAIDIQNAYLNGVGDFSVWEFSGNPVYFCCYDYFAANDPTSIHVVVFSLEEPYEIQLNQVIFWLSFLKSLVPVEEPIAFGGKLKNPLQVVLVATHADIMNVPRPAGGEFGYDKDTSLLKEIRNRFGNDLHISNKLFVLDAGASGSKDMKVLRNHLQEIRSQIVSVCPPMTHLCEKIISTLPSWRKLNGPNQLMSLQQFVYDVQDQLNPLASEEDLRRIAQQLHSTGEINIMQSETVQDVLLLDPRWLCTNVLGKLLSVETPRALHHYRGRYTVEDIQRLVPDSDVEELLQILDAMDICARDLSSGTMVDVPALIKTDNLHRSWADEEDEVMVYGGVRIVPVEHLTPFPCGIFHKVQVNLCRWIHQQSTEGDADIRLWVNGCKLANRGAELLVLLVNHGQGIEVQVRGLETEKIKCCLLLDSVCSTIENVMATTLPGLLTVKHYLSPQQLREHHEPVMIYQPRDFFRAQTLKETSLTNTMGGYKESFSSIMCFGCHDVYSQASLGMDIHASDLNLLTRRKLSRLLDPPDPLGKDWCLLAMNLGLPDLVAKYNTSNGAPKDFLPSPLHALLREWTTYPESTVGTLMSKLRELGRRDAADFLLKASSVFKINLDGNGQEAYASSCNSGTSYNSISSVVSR
# Sequence of VEGFR2 (P35968 20-1356): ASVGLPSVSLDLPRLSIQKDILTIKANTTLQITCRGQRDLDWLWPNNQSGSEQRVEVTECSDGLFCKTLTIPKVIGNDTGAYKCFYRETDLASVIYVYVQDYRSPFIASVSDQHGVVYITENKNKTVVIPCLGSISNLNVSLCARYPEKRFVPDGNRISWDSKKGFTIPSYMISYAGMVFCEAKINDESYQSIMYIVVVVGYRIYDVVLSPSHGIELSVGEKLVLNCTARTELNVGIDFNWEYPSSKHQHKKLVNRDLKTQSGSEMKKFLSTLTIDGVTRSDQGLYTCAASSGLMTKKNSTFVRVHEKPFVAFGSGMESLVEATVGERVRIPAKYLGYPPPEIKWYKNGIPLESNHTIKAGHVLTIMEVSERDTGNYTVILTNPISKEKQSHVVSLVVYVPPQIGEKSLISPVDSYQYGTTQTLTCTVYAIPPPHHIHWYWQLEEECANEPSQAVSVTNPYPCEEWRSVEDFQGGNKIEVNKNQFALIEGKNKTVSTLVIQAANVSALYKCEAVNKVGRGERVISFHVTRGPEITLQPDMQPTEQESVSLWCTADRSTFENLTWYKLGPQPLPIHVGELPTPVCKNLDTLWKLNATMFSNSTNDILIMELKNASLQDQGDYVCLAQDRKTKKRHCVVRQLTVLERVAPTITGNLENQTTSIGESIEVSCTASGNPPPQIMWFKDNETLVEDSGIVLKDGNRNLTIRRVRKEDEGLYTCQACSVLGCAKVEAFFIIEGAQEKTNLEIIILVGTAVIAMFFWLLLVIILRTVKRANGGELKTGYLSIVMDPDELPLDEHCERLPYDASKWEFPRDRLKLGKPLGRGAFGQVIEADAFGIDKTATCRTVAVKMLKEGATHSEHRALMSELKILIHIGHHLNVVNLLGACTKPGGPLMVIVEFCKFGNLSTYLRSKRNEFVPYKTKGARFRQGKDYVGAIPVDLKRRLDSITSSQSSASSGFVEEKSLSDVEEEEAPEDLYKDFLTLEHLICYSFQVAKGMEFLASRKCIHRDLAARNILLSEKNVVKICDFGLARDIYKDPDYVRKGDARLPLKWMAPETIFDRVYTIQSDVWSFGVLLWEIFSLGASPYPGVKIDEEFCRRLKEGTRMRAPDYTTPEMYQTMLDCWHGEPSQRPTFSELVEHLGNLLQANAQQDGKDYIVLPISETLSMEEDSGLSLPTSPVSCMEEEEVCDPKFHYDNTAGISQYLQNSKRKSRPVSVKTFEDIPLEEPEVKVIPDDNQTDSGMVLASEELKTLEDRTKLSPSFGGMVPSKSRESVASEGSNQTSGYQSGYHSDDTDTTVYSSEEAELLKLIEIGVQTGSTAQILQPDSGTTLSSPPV
# T3 sequence (P48730 whole entry): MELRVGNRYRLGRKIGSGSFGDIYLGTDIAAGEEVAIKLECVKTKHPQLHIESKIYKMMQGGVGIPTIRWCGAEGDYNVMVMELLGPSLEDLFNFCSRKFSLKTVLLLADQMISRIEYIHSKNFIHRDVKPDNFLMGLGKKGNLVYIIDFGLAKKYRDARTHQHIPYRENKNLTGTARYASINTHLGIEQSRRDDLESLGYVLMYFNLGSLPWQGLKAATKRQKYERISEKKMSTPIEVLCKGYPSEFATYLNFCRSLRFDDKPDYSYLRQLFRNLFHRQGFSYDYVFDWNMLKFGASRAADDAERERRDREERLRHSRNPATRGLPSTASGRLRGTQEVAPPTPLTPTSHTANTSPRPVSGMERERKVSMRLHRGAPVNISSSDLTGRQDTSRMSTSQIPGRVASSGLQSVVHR
SMILES,remaining activity at 1 µM (EPHB4; [1]),remaining activity at 1 µM (EPHB4; [2]),remaining activity at 1 µM (EPHB4; [3]),remaining activity at 10 µM (EPHB4; [4]),remaining activity at 10 µM (EPHB4; [5]),remaining activity at 10 µM (EPHB4; [6]),remaining activity at 1 µM (DAPK1; [7]),remaining activity at 1 µM (DAPK1; [8]),remaining activity at 1 µM (DAPK1; [9]),remaining activity at 10 µM (DAPK1; [10]),remaining activity at 10 µM (DAPK1; [11]),remaining activity at 10 µM (DAPK1; [12]),remaining activity at 1 µM (CK1d; [13]),remaining activity at 1 µM (CK1d; [14]),remaining activity at 1 µM (CK1d; [15]),remaining activity at 10 µM (CK1d; [16]),remaining activity at 10 µM (CK1d; [17]),remaining activity at 10 µM (CK1d; [18]),remaining activity at 1 µM (VEGFR2; [19]),remaining activity at 1 µM (VEGFR2; [20]),other results
O=C1Nc2ccc(Cl)cc2[C@@](C#CC2CC2)(C(F)(F)F)O1 [Efavirenz],,,,,,,,,,,,,,,,,,,,,"% Enzyme Activity (relative to DMSO controls), Data 1 (EPHB4; EPHB4, 1 uM, replicate Data 1): 93.6%; % Enzyme Activity (relative to DMSO controls), Data 1 (EPHB4; EPHB4, 10 uM, replicate Data 1): 93.32%; % Enzyme Activity (relative to DMSO controls), Data 1 (NEK2; 1 uM): 110.94%; % Enzyme Activity (relative to DMSO controls), Data 1 (NEK2; 10 uM): 81.38%; % Enzyme Activity (relative to DMSO controls), Data 1 (VEGFR2; 1 uM, replicate Data 1): 102.21%; % Enzyme Activity (relative to DMSO controls), Data 1 (VEGFR2; 10 uM, replicate Data 1): 95.58%; % Enzyme Activity (relative to DMSO controls), Data 1 (CK1d; CK1d, 1 uM, replicate Data 1): 101.66%"
NCCCCCC(=O)O [Aminocaproic acid],103%,103%,104%,93.5%,92.2%,94.7%,114%,116%,112%,110%,109%,111%,118%,116%,120%,125%,122%,127%,,,
CC(=O)O[C@H]1C[C@@]2(C)[C@@H](C[C@@H](O)[C@H]3[C@@]4(C)CC[C@@H](O)[C@@H](C)[C@@H]4CC[C@@]32C)/C1=C(\CCC=C(C)C)C(=O)O [Fusidic acid],101%,101%,101%,92.3%,95.3%,89.3%,96.4%,102%,90.5%,93.7%,93%,94.5%,100%,95.3%,105%,111%,113%,108%,109%,110%,remaining activity at 1 µM (VEGFR2; [21]): 107%; remaining activity at 10 µM (VEGFR2; [22]): 101%; remaining activity at 10 µM (VEGFR2; [23]): 96%; remaining activity at 10 µM (VEGFR2; [24]): 105%
"CC(C)c1cccc(C(C)C)c1O [Propofol, reference compound]",,,,,,,,,,,,,,,,,,,,,remaining activity at 1 µM (EPHB4; [25]): 67%; remaining activity at 10 µM (EPHB4; [25]): 68.4%; remaining activity at 1 µM (EPHB4; [26]): 76%; remaining activity at 10 µM (EPHB4; [26]): 68.4%; remaining activity at 1 µM (EPHB4; [27]): 57.9%; remaining activity at 10 µM (EPHB4; [27]): 68.5%; remaining activity at 1 µM (EPHB4; read-out: % Enzyme activity at 1μM): 67%; remaining activity at 10 µM (EPHB4; read-out: % Enzyme activity at 10μM): 68.4%; remaining activity at 1 µM (DAPK1; [25]): 107%; remaining activity at 10 µM (DAPK1; [25]): 86.5%; remaining activity at 1 µM (DAPK1; [26]): 113%; remaining activity at 10 µM (DAPK1; [26]): 86.4%; remaining activity at 1 µM (DAPK1; [27]): 102%; remaining activity at 10 µM (DAPK1; [27]): 86.5%; remaining activity at 1 µM (CK1d; [25]): 126%; remaining activity at 10 µM (CK1d; [25]): 112%; remaining activity at 1 µM (CK1d; [26]): 145%; remaining activity at 10 µM (CK1d; [26]): 116%; remaining activity at 1 µM (CK1d; [27]): 108%; remaining activity at 10 µM (CK1d; [27]): 108%
COc1cc2c(c(OC)c1OC)-c1ccc(OC)c(=O)cc1[C@@H](NC(C)=O)CC2 [Colchicine],,,,,,,,,,,,,,,,,,,,,"% Enzyme Activity (relative to DMSO controls), Data 2 (EPHB4; EPHB4, 1 uM, replicate Data 2): 106.52%; % Enzyme Activity (relative to DMSO controls), Data 2 (EPHB4; EPHB4, 10 uM, replicate Data 2): 99.11%; % Enzyme Activity (relative to DMSO controls), Data 2 (DAPK1; DAPK1, 1 uM, replicate Data 2): 111.85%; % Enzyme Activity (relative to DMSO controls), Data 2 (DAPK1; DAPK1, 10 uM, replicate Data 2): 96.44%; % Enzyme Activity (relative to DMSO controls), Data 2 (VEGFR2; 1 uM, replicate Data 2): 110.08%; % Enzyme Activity (relative to DMSO controls), Data 2 (VEGFR2; 10 uM, replicate Data 2): 105.23%; % Enzyme Activity (relative to DMSO controls), Data 2 (CK1d; CK1d, 10 uM, replicate Data 2): 111.97%"
"CC(C)c1nc(CN(C)C(=O)N[C@H](C(=O)N[C@@H](Cc2ccccc2)C[C@H](O)[C@H](Cc2ccccc2)NC(=O)OCc2cncs2)C(C)C)cs1 [Ritonavir, reference compound]",99.2%,99.5%,98.9%,95.1%,97.2%,93.1%,92.6%,94.8%,90.4%,38.5%,39.2%,37.7%,,,,,,,111%,111%,"remaining activity at 1 µM (DAPK1; DAPK1, compound 1μM, relative to DMSO controls, read-out: % Enzyme activity at 1μM): 92.6%; remaining activity at 10 µM (DAPK1; DAPK1, compound 10μM, relative to DMSO controls, read-out: % Enzyme activity at 10μM): 38.5%; remaining activity at 1 µM (VEGFR2; [21]): 112%; remaining activity at 10 µM (VEGFR2; [22]): 109%; remaining activity at 10 µM (VEGFR2; [23]): 113%; remaining activity at 10 µM (VEGFR2; [24]): 106%"

# Source: PMC7252619 (PLoS ONE, 2020)
